Molecules are shown by their SMILES.

The target in the assay is NACHT, LRR and PYD domains-containing protein 3 (Homo sapiens, UniProt Q96P20). Description: Evaluation of NLRP3 Inflammasome Inhibitory Activity Assay. How it is done: The NLRP3 inflammasome inhibitory activity of test compounds were evaluated CM the basis of the inhibitory activity of the IL-1β, production in THP1-Null cells (Product Number: thp-null, InvivoGen). […] A solution containing a test compound (20 μL/well) was added to test compound-setting wells. […] The supernatant of the culture was cryonically stored (set at −20° C.) until measurement of IL-1β.
Sequence of NACHT, LRR and PYD domains-containing protein 3 (Q96P20 whole entry, the tested form may be a part): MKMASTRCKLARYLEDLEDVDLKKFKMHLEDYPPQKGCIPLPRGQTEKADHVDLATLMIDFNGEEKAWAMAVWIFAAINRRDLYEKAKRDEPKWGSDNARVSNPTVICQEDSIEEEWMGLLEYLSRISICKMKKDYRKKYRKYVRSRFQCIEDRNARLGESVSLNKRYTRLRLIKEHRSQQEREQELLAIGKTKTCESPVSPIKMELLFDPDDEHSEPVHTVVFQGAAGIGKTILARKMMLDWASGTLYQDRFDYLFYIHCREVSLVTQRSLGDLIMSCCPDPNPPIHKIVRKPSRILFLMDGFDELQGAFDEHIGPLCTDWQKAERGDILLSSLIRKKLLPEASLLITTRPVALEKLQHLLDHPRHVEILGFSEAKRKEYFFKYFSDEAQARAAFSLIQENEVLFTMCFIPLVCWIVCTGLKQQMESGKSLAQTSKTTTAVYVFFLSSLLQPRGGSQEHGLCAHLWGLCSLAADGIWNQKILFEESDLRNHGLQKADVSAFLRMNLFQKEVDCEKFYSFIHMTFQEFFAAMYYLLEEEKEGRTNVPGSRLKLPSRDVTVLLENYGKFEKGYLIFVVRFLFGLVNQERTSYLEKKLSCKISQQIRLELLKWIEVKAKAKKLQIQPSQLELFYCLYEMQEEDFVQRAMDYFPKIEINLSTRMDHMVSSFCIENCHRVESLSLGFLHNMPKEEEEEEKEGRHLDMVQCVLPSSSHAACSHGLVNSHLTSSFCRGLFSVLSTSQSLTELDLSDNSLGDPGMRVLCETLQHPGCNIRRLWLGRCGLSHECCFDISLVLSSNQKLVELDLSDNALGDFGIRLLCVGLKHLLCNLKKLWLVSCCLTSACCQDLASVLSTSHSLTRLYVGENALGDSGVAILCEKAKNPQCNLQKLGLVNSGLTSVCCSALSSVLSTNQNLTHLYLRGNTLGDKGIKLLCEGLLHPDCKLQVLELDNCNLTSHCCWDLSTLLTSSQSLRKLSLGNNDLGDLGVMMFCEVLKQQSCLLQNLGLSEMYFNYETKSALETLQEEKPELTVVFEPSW
In general, IC50 refers to the concentration needed to halve the response being measured. For `Cc1ccc(C(F)(F)F)cc1Nc1nc(C(=O)NS(=O)(=O)N2CCOCC(F)(F)C2)co1` [US20230399319, Example 2-190], half-maximal inhibition (IC50) was put at 17 nM.

`CC(C)c1nn(C(C)C)cc1Nc1nc(C(=O)NS(=O)(=O)N2CCCC(C#N)CC2)co1` (configuration not stated) [US20230399319, Example 2-191] registered an IC50 of 350 nM.

In turn, `Cc1cn(C(C)C)nc1Nc1nc(C(=O)NS(=O)(=O)N2CCCC(C#N)CC2)co1` (configuration not stated) [US20230399319, Example 2-192] yielded an IC50 of 160 nM.

In turn, `COC1CCN(S(=O)(=O)NC(=O)c2coc(Nc3cc(C(F)(F)F)ccc3C)n2)C1` (configuration not stated) [US20230399319, Example 2-199] displayed an IC50 of 160 nM.

Take `CCC(C)n1cc(C)c(Nc2nc(C(=O)NS(=O)(=O)N3CCCOCC3)co2)n1` (configuration not stated) [US20230399319, Example 2-200]: the half-inhibitory concentration (IC50) was 1100 nM.

In turn, `Cc1ccc(C(F)(F)F)cc1Nc1nc(C(=O)NS(=O)(=O)N2C[C@H]3COC[C@@H]3C2)co1` [US20230399319, Example 2-201] showed an IC50 of 320 nM.

The molecule `CC(C)c1cc(Nc2nc(C(=O)NS(=O)(=O)N3CCCOCC3)co2)n(C(C)C)n1` [US20230399319, Example 2-202] had a half-inhibitory concentration (IC50) of 2200 nM.

In turn, `Cc1ccc(C(F)(F)F)cc1Nc1nc(C(=O)NS(=O)(=O)N(C)CC2CCCCC2)co1` [US20230399319, Example 2-206] yielded a half-maximal inhibitory concentration (IC50) of 150 nM.

Consider `Cc1ccc(C(F)(F)F)cc1Nc1nc(C(=O)NS(=O)(=O)N(Cc2ccccc2)C(C)C)co1` [US20230399319, Example 2-207], for which the IC50 is 180 nM.

As to `Cc1ccc(C(F)(F)F)cc1Nc1nc(C(=O)NS(=O)(=O)N(C)CC2CCCC2)co1` [US20230399319, Example 2-208], inhibition was half-maximal at 89 nM (IC50).

`Cc1cn(C(C)C)nc1Nc1nc(C(=O)NS(=O)(=O)N2CCOCC(F)(F)C2)co1` [US20230399319, Example 2-212] returned an IC50 of 280 nM.

Regarding `Cc1ccc(C(F)(F)F)cc1Nc1nc(C(=O)NS(=O)(=O)N2CCC(C#N)C2)co1` (configuration not stated) [US20230399319, Example 2-221], inhibition was half-maximal at 210 nM (IC50).

The molecule `CCCC1CCCN(S(=O)(=O)NC(=O)c2coc(Nc3cc(C(F)(F)F)ccc3C)n2)CC1` (configuration not stated) [US20230399319, Example 2-233] gave a half-inhibitory concentration (IC50) of 480 nM.

As to `Cc1ccc(C(F)(F)F)cc1Nc1nc(C(=O)NS(=O)(=O)N2CCCC(F)(F)CC2)co1` [US20230399319, Example 2-234], it took 50 nM to reach half-maximal inhibition (IC50).

Molecule `COCCCN(C)S(=O)(=O)NC(=O)c1coc(Nc2cc(C(F)(F)F)ccc2C)n1` [US20230399319, Example 2-235] displayed an IC50 of 94 nM.

Consider `Cc1ccc(C(F)(F)F)cc1Nc1nc(C(=O)NS(=O)(=O)N(C)Cc2cnccn2)co1` [US20230399319, Example 2-236], for which the IC50 came out at 100 nM.

Take `Cc1ccc(C(F)(F)F)cc1Nc1nc(C(=O)NS(=O)(=O)N2CCCS(=O)(=O)CC2)co1` [US20230399319, Example 2-239]: the IC50 stood at 170 nM.

`CCC1(C#N)CCCN(S(=O)(=O)NC(=O)c2coc(Nc3cc(C(F)(F)F)ccc3C)n2)CC1` (configuration not stated) [US20230399319, Example 2-240]: it took 31 nM to reach half-maximal inhibition (IC50).

For `CCCCS(=O)(=O)N1CCN(S(=O)(=O)NC(=O)c2coc(Nc3cc(C(F)(F)F)ccc3C)n2)CC1` [US20230399319, Example 2-247], the IC50 amounted to 22 nM.

Turning to `CCCCC1(C#N)CCCN(S(=O)(=O)NC(=O)c2coc(Nc3cc(C(F)(F)F)ccc3C)n2)CC1` (configuration not stated) [US20230399319, Example 2-249], the concentration for half-maximal inhibition (IC50) is 30 nM.

Take `COCCC1(C#N)CCCN(S(=O)(=O)NC(=O)c2coc(Nc3cc(C(F)(F)F)ccc3C)n2)CC1` (configuration not stated) [US20230399319, Example 2-250]: the IC50 came to 30 nM.

`CCC(=O)N(C)C1CCCN(S(=O)(=O)NC(=O)c2coc(Nc3cc(C(F)(F)F)ccc3C)n2)C1` (configuration not stated) [US20230399319, Example 2-255] gave a half-maximal inhibitory concentration (IC50) of 210 nM.

The molecule `Cc1ccc(C(F)(F)F)cc1Nc1nc(C(=O)NS(=O)(=O)N2CCCC(C#N)(C(=O)N(C)C)CC2)co1` (configuration not stated) [US20230399319, Example 2-260] yielded a half-maximal inhibitory concentration (IC50) of 41 nM.

Take `Cc1ccc(C(F)(F)F)cc1Nc1nc(C(=O)NS(=O)(=O)N2CCCC(C#N)(C(=O)N3CCCC3)CC2)co1` (configuration not stated) [US20230399319, Example 2-261]: the IC50 stood at 28 nM.

In the case of `Cc1ccc(C(F)(F)F)cc1Nc1nc(C(=O)NS(=O)(=O)N2CCN(c3ncccn3)CC2)co1` [US20230399319, Example 2-265], the IC50 worked out at 1100 nM.

In turn, `Cc1ccc(C(F)(F)F)cc1Nc1nc(C(=O)NS(=O)(=O)N2CCN(S(=O)(=O)N(C)C)CC2)co1` [US20230399319, Example 2-266] gave an IC50 of 50 nM.

Consider `Cc1ccc(C(F)(F)F)cc1Nc1nc(C(=O)NS(=O)(=O)N2CCN(S(=O)(=O)C(C)C)CC2)co1` [US20230399319, Example 2-267], for which the midpoint of inhibition, the IC50, lay at 88 nM.

`COCCN(Cc1ccccc1)S(=O)(=O)NC(=O)c1coc(Nc2cc(C(F)(F)F)ccc2C)n1` [US20230399319, Example 2-268] showed an IC50 of 55 nM.

With `Cc1ccc(C(F)(F)F)cc1Nc1nc(C(=O)NS(=O)(=O)N2CCN(c3ccccc3)CC2)co1` [US20230399319, Example 2-274], half-maximal inhibition (IC50) was put at 180 nM.

`Cc1ccc(C(F)(F)F)cc1Nc1nc(C(=O)NS(=O)(=O)N(C)CCn2cccn2)co1` [US20230399319, Example 2-279] came in with a half-maximal inhibitory concentration (IC50) of 74 nM.

`Cc1ccc(C(F)(F)F)cc1Nc1nc(C(=O)NS(=O)(=O)N(C)CCS(C)(=O)=O)co1` [US20230399319, Example 2-280] gave an IC50 of 420 nM.

Consider `Cc1ccc(C(F)(F)F)cc1Nc1nc(C(=O)NS(=O)(=O)N2CCC(c3ccccc3)CC2)co1` [US20230399319, Example 2-282], for which the IC50 came out at 2500 nM.

Molecule `Cc1ccc(C(F)(F)F)cc1Nc1nc(C(=O)NS(=O)(=O)N2CCCC(c3ccccc3)C2)co1` (configuration not stated) [US20230399319, Example 2-284] returned an IC50 of 1400 nM.

For the molecule `Cc1noc(C2(C)CCN(S(=O)(=O)NC(=O)c3coc(Nc4cc(C(F)(F)F)ccc4C)n3)CC2)n1` [US20230399319, Example 2-285], the concentration for half-maximal inhibition (IC50) was 170 nM.

As to `Cc1ccc(C(F)(F)F)cc1Nc1nc(C(=O)NS(=O)(=O)N(C)CCc2ccccn2)co1` [US20230399319, Example 2-287], the IC50 came out at 64 nM.

Molecule `COCC(C)CN(C)S(=O)(=O)NC(=O)c1coc(Nc2cc(C(F)(F)F)ccc2C)n1` (configuration not stated) [US20230399319, Example 2-296] registered an IC50 of 81 nM.

`Cc1ccc(C)c(Nc2nc(C(=O)NS(=O)(=O)N3CCCC(C#N)CC3)co2)c1` (configuration not stated) [US20230399319, Example 2-300] came in with an IC50 of 190 nM.

As to `CCCS(=O)(=O)C1CCCN(S(=O)(=O)NC(=O)c2coc(Nc3nn(C(C)C)cc3C)n2)CC1` (configuration not stated) [US20230399319, Example 2-302], inhibition was half-maximal at 36 nM (IC50).

`COC[C@@H]1CCCN1S(=O)(=O)NC(=O)c1coc(Nc2cc(C)ccc2C)n1` [US20230399319, Example 2-303]: the IC50 is 140 nM.

For the molecule `Cc1ccc(C(F)(F)F)cc1Nc1nc(C(=O)NS(=O)(=O)N2CCOCC(n3cccn3)C2)co1` (configuration not stated) [US20230399319, Example 2-304], the IC50 worked out at 59 nM.

Regarding `COCC1CCN(S(=O)(=O)NC(=O)c2coc(Nc3cc(C(F)(F)F)ccc3C)n2)C1` (configuration not stated) [US20230399319, Example 2-307], the midpoint of inhibition, the IC50, lay at 69 nM.

In turn, `CCCS(=O)(=O)C1CCCN(S(=O)(=O)NC(=O)c2coc(Nc3cc(C)ccc3C(C)C)n2)CC1` (configuration not stated) [US20230399319, Example 2-311] registered an IC50 of 18 nM.

Consider `Cc1ccc(C(F)(F)F)cc1Nc1nc(C(=O)NS(=O)(=O)N2CCCN(c3ncccn3)[C@H](C)C2)co1` [US20230399319, Example 2-313], for which the concentration for half-maximal inhibition (IC50) was found to be 22 nM.

Molecule `CCOC[C@@H]1CCCN1S(=O)(=O)NC(=O)c1coc(Nc2cc(C)ccc2C)n1` [US20230399319, Example 2-314] displayed an IC50 of 210 nM.

Consider `CCCS(=O)(=O)C1CCCN(S(=O)(=O)NC(=O)c2coc(Nc3nc(C(F)(F)F)ccc3C(C)C)n2)CC1` (configuration not stated) [US20230399319, Example 2-315], for which the IC50 stood at 85 nM.

In turn, `CCCS(=O)(=O)C1CCCN(S(=O)(=O)NC(=O)c2coc(Nc3cc(C(F)(F)F)ccc3C(C)C)n2)CC1` (configuration not stated) [US20230399319, Example 2-316] returned a half-inhibitory concentration (IC50) of 22 nM.

The molecule `Cc1ccc(C(F)(F)F)cc1Nc1nc(C(=O)NS(=O)(=O)N2CCCC(S(=O)(=O)C(C)C)CC2)co1` (configuration not stated) [US20230399319, Example 2-317] registered a half-inhibitory concentration (IC50) of 27 nM.

`COC[C@@H]1CCCN1S(=O)(=O)NC(=O)c1coc(Nc2cc(C)ccc2C(C)C)n1` [US20230399319, Example 2-322]: the IC50 was 270 nM.

Molecule `CCCOCC1CCN(S(=O)(=O)NC(=O)c2coc(Nc3cc(C)ccc3C)n2)CCO1` (configuration not stated) [US20230399319, Example 2-323] returned an IC50 of 35 nM.

As for `Cc1cc(Nc2nc(C(=O)NS(=O)(=O)N3CCCOCC3)co2)c(C(C)C)cc1F` [US20230399319, Example 2-334], the half-inhibitory concentration (IC50) is 26 nM.

In turn, `CCOCC1CCN(S(=O)(=O)NC(=O)c2coc(Nc3cc(C)c(F)cc3C(C)C)n2)CCO1` (configuration not stated) [US20230399319, Example 2-335] returned an IC50 of 18 nM.

Molecule `Cc1cc(F)c(C(C)C)cc1Nc1nc(C(=O)NS(=O)(=O)N2CCCOCC2)co1` [US20230399319, Example 2-336] displayed an IC50 of 10 nM.

`CCOCC1CCN(S(=O)(=O)NC(=O)c2coc(Nc3cc(C(C)C)c(F)cc3C)n2)CCO1` (configuration not stated) [US20230399319, Example 2-337] came in with an IC50 of 13 nM.

Regarding `Cc1ccc(C(F)(F)F)cc1Nc1nc(C(=O)NS(=O)(=O)N(C)CCC(=O)N(C)C)co1` [US20230399319, Example 2-338], the IC50 is 77 nM.

Molecule `Cc1cc(Nc2nc(C(=O)NS(=O)(=O)N3CCCOCC3)co2)c(C)cc1F` [US20230399319, Example 2-339] registered an IC50 of 30 nM.

`CCOCC1CCN(S(=O)(=O)NC(=O)c2coc(Nc3cc(C)c(F)cc3C)n2)CCO1` (configuration not stated) [US20230399319, Example 2-340] had an IC50 of 12 nM.

On to `Cc1ccc(C(C)C)cc1Nc1nc(C(=O)NS(=O)(=O)N2CCOC(CN(C)C)CC2)co1` (configuration not stated) [US20230399319, Example 2-341], for which the half-inhibitory concentration (IC50) came out at 88 nM.

The record behind these values is BindingDB's records for patent US20230399319 (Japan Tobacco, 2023).
